Test results from PubChem BioAssay (NCI).
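In this assay, cells in 96-well plates receive the compound at five concentrations for 48 hours. Endpoints are linearly interpolated between the surrounding concentrations. The concentration for 50% growth inhibition is given as GI50. TGI: total growth inhibition.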

Key:
Assay in all cases: NCI anticancer screen, dose series, 48 h
[1] = system: SK-OV-3 ovarian
[2] = system: SNB-75 CNS
[3] = system: OVCAR-8 ovarian
[4] = system: SK-MEL-28 melanoma
[5] = system: NCI-H460 lung
[6] = system: IGROV1 ovarian
[7] = system: SK-MEL-5 melanoma
[8] = system: SN12C renal
[9] = system: SK-MEL-2 melanoma
[10] = system: M14 melanoma
[11] = system: HT29 colon
[12] = system: KM12 colon
[13] = system: U251 CNS
[14] = system: MALME-3M melanoma
[15] = system: HCC-2998 colon
[16] = system: A549 NSCLC
[17] = system: TK-10 renal
[18] = system: T-47D breast
[19] = system: CAKI-1 renal
[20] = system: HOP-62 NSCLC
[21] = system: BT-549 breast
[22] = system: NCI-H226 lung
[23] = system: HS 578T breast
[24] = system: 786-0 renal
[25] = system: UACC-62 melanoma
[26] = system: NCI-H23 lung
[27] = system: SF-268 CNS
[28] = system: MCF7 breast
[29] = system: MDA-MB-435
[30] = system: COLO 205 colon
[31] = system: OVCAR-3 ovarian
[32] = system: A498 renal
[33] = system: HCT-116 colon
[34] = system: NCI-H522 lung
[35] = system: LOX IMVI melanoma
[36] = system: SW-620 colon
[37] = system: DU-145 prostate
[38] = system: UO-31 renal
[39] = system: OVCAR-4 ovarian
[40] = system: RXF 393 renal
[41] = system: EKVX NSCLC
[42] = system: MDA-MB-231 breast
[43] = system: UACC-257 melanoma
[44] = system: SF-295 CNS
[45] = system: SNB-19 CNS
[46] = system: NCI/ADR-RES ovarian
[47] = system: RPMI-8226 leukemia
[48] = system: K-562 leukemia
[49] = system: MOLT-4 leukemia
[50] = system: HL-60(TB) leukemia
[51] = system: OVCAR-5 ovarian
[52] = system: HOP-92 NSCLC
[53] = system: SF-539 CNS
[54] = system: HCT-15 colon
[55] = system: ACHN renal

N#CC1(Nc2ccc(Br)cc2)CCCC1
GI50 [1]: > 100 µM | TGI [1]: > 100 µM | GI50 [2]: > 100 µM | TGI [2]: > 100 µM | GI50 [3]: 26.5 µM | TGI [3]: > 100 µM | GI50 [4]: > 100 µM | TGI [4]: > 100 µM | GI50 [5]: 1.99 µM | TGI [5]: > 100 µM | GI50 [6]: 75.4 µM | TGI [6]: > 100 µM | GI50 [7]: 3.05 µM | TGI [7]: > 100 µM | GI50 [8]: 12.6 µM | TGI [8]: > 100 µM | GI50 [9]: > 100 µM | TGI [9]: > 100 µM | GI50 [10]: 1.2 µM | TGI [10]: > 100 µM | GI50 [11]: > 100 µM | TGI [11]: > 100 µM | GI50 [12]: 1.86 µM | TGI [12]: > 100 µM | GI50 [13]: 44.5 µM | TGI [13]: > 100 µM | GI50 [14]: 42.6 µM | TGI [14]: > 100 µM | GI50 [15]: 8.3 µM | TGI [15]: > 100 µM | GI50 [16]: 8.15 µM | TGI [16]: > 100 µM | GI50 [17]: > 100 µM | TGI [17]: > 100 µM | GI50 [18]: 9.39 µM | TGI [18]: > 100 µM | GI50 [19]: 0.529 µM | TGI [19]: > 100 µM | GI50 [20]: > 100 µM | TGI [20]: > 100 µM | GI50 [21]: 22.2 µM | TGI [21]: > 100 µM | GI50 [22]: > 100 µM | TGI [22]: > 100 µM | GI50 [23]: > 100 µM | TGI [23]: > 100 µM | GI50 [24]: 11.3 µM | TGI [24]: > 100 µM | GI50 [25]: 0.427 µM | TGI [25]: > 100 µM | GI50 [26]: > 100 µM | TGI [26]: > 100 µM | GI50 [27]: > 100 µM | TGI [27]: > 100 µM | GI50 [28]: 9.98 µM | TGI [28]: > 100 µM | GI50 [29]: 3.78 µM | TGI [29]: > 100 µM | GI50 [30]: > 100 µM | TGI [30]: > 100 µM | GI50 [31]: 96.4 µM | TGI [31]: > 100 µM | GI50 [32]: > 100 µM | TGI [32]: > 100 µM | GI50 [33]: > 100 µM | TGI [33]: > 100 µM | GI50 [34]: > 100 µM | TGI [34]: > 100 µM | GI50 [35]: 0.543 µM | TGI [35]: > 100 µM | GI50 [36]: 3.22 µM | TGI [36]: > 100 µM | GI50 [37]: > 100 µM | TGI [37]: > 100 µM | GI50 [38]: 4.69 µM | TGI [38]: > 100 µM | GI50 [39]: > 100 µM | TGI [39]: > 100 µM | GI50 [40]: > 100 µM | TGI [40]: > 100 µM | GI50 [41]: 7.27 µM | TGI [41]: > 100 µM | GI50 [42]: 3.16 µM | TGI [42]: > 100 µM | GI50 [43]: 31.4 µM | TGI [43]: > 100 µM | GI50 [44]: 2.3 µM | TGI [44]: > 100 µM | GI50 [45]: > 100 µM | TGI [45]: > 100 µM | GI50 [46]: 9.2 µM | TGI [46]: > 100 µM

O=C(Cc1n[nH]c(=O)c2ccccc12)OCc1c(Cl)cccc1Cl
GI50 [1]: 12.8 µM | TGI [1]: > 100 µM | GI50 [47]: 82.4 µM | TGI [47]: > 100 µM | GI50 [48]: 4.19 µM | TGI [48]: > 100 µM | GI50 [49]: 4.07 µM | TGI [49]: > 100 µM | GI50 [50]: 6.53 µM | TGI [50]: > 100 µM | GI50 [2]: 25.8 µM | TGI [2]: > 100 µM | GI50 [3]: 36.5 µM | TGI [3]: > 100 µM | GI50 [4]: > 100 µM | TGI [4]: > 100 µM | GI50 [5]: 2.39 µM | TGI [5]: > 100 µM | GI50 [6]: > 100 µM | TGI [6]: > 100 µM | GI50 [7]: 4.18 µM | TGI [7]: > 100 µM | GI50 [8]: > 100 µM | TGI [8]: > 100 µM | GI50 [51]: > 100 µM | TGI [51]: > 100 µM | GI50 [9]: > 100 µM | TGI [9]: > 100 µM | GI50 [10]: > 100 µM | TGI [10]: > 100 µM | GI50 [11]: 15.6 µM | TGI [11]: > 100 µM | GI50 [12]: 24.2 µM | TGI [12]: > 100 µM | GI50 [13]: 8.39 µM | TGI [13]: > 100 µM | GI50 [14]: 48.5 µM | TGI [14]: > 100 µM | GI50 [15]: 50.4 µM | TGI [15]: > 100 µM | GI50 [16]: > 100 µM | TGI [16]: > 100 µM | GI50 [17]: 41 µM | TGI [17]: > 100 µM | GI50 [18]: 24.6 µM | TGI [18]: > 100 µM | GI50 [19]: 26.2 µM | TGI [19]: > 100 µM | GI50 [52]: > 100 µM | TGI [52]: > 100 µM | GI50 [21]: 16.3 µM | TGI [21]: > 100 µM | GI50 [22]: 9.97 µM | TGI [22]: > 100 µM | GI50 [23]: 17.4 µM | TGI [23]: > 100 µM | GI50 [24]: 15.1 µM | TGI [24]: > 100 µM | GI50 [25]: 8.55 µM | TGI [25]: > 100 µM | GI50 [26]: > 100 µM | TGI [26]: > 100 µM | GI50 [27]: 9.21 µM | TGI [27]: > 100 µM | GI50 [28]: > 100 µM | TGI [28]: > 100 µM | GI50 [29]: > 100 µM | TGI [29]: > 100 µM | GI50 [30]: 5.63 µM | TGI [30]: > 100 µM | GI50 [31]: 41.9 µM | TGI [31]: > 100 µM | GI50 [32]: > 100 µM | TGI [32]: > 100 µM | GI50 [33]: 3.64 µM | TGI [33]: > 100 µM | GI50 [34]: > 100 µM | TGI [34]: > 100 µM | GI50 [35]: 5.16 µM | TGI [35]: > 100 µM | GI50 [36]: 49.8 µM | TGI [36]: > 100 µM | GI50 [37]: 53.4 µM | TGI [37]: > 100 µM | GI50 [38]: > 100 µM | TGI [38]: > 100 µM | GI50 [39]: > 100 µM | TGI [39]: > 100 µM | GI50 [53]: 10.1 µM | TGI [53]: > 100 µM | GI50 [54]: 1.74 µM | TGI [54]: > 100 µM | GI50 [55]: 82 µM | TGI [55]: > 100 µM | GI50 [40]: 24.1 µM | TGI [40]: 68.3 µM | GI50 [41]: > 100 µM | TGI [41]: > 100 µM | GI50 [42]: 69.8 µM | TGI [42]: > 100 µM | GI50 [43]: > 100 µM | TGI [43]: > 100 µM | GI50 [45]: 15.6 µM | TGI [45]: > 100 µM | GI50 [46]: 93.6 µM | TGI [46]: > 100 µM
